In the NIST ThermoML archive (doi:10.1016/j.fluid.2004.11.006):
Numbers after ± are expanded uncertainties.

How the values were obtained:
[1] = Solid-liquid equilibrium temperature; settings: 101.3 kPa
[2] = Molar enthalpy of transition or fusion; settings: Crystal; DSC

Solid-liquid equilibrium temperature ([1]; Crystal) [K] | Molar enthalpy of transition or fusion [2] [kJ/mol] | Solid-liquid equilibrium temperature ([1]; Crystal 1) [K] | SMILES
249.68 ± 0.4 | 11 ± 0.38 | – | CN1CCCC1=O [N-methylpyrrolidone]
285.08 ± 0.4 | – | – | C1COCCO1 [1,4-dioxane]
– | – | 311.76 ± 0.8 | C1COCCOCCOCCOCCOCCO1 [1,4,7,10,13,16-hexaoxacyclooctadecane]
